Experimental data: article PMC7144120, “Psoralen Derivatives as Inhibitors of Mycobacterium tuberculosis Proteasome” (Molecules, 2020)
“Also recorded” adds a separate entry of the source.

Key:
Mtb proteasome [1] = molecular target: T1, Mtb proteasome (Mycobacterium tuberculosis, UniProt P9WHT9); test: Determination of kinact/Ki values for PR-957; assay type: biochemical; settings: 50 µM Suc-LLVY-AMC, 37 °C
T1 construct: made in house
Experimental: The kinetic assays were conducted as previously described in Enzymatic assays. Briefly, 7.8 μL of the Mtb proteasome (final concentration of 7 nM) in 20 mM HEPES buffer, pH = 7.5 with 0.5 mM EDTA was added to 0.2 μL of the compound solution at 100x final concentration in DMSO. The concentrations of PR-957 used were 0, 1.15, 1.65, 2.35, 4.80, 9.80 and 20 µM. The enzymatic reaction was initiated by the addition of 2 μL Suc-LLVY-AMC (final concentration of 50 μM) and the reaction progress was determined on a BioTek Synergy HT microplate reader, by monitoring fluorescence at 460 nm (λex = 360 nm) for 90 min at 37 °C. Values of kobs were derived from the fit of the data to the equation P = (vi/kobs)x [1 − exp(−kobs·t)] in GraphPadPrism. The data obtained were afterwards plotted against inhibitor concentration, to obtain kinact/Ki by fitting to the equation […]. The representative plots are presented in Supplementary data (Figure S33–S36).

Mtb proteasome [2] = molecular target: T1, Mtb proteasome; test: Determination of Ki and type of inhibition (varied substrate concentration, GraphPad Prism model fit); assay type: biochemical
Experimental: The concentrations of 11, 13 and 15 were 0, 0.56, 0.81, 1.15, 1.65, 2.35, 4.80, 9.80 and 20 µM. Further, the concentrations for compound 8 were 0, 1.65, 2.35, 4.80, 9.80 µM and for bortezomib 0, 0.28, 0.40, 0.58, 0.82, 1.18, 2.40, 4.90 and 10 µM. All experiments were performed in triplicate. The resulting data were analyzed using the GraphPad Prism 6 software and were fitted to the software provided models for competitive, noncompetitive, uncompetitive and mixed type enzyme inhibition. The mode of inhibition and Ki values were chosen from the best ranking model, as determined by the software. Representative graphs (Michaelis-Menten, Dixon and Lineweaver-Burk plots) depicting the data fit for the best ranking model of inhibition for all compounds are shown in the Supplementary data (Figures S2–S19).

Mtb proteasome [3] = molecular target: T1, Mtb proteasome; test: biochemical; assay type: biochemical
ß5i of IP = settings: read-out: IC50 against ß5i of IP; cited from earlier work
Mtb proteasome [4] = molecular target: T1, Mtb proteasome; assay type: biochemical

T1 sequence (P9WHT9 whole entry, looked up): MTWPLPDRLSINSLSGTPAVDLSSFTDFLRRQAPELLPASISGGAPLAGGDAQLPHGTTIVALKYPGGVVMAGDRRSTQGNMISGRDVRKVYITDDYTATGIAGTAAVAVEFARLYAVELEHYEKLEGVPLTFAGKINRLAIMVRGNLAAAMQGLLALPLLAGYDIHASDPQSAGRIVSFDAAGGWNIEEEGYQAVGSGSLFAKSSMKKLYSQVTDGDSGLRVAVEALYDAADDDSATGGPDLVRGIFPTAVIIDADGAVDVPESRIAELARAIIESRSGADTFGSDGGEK

For COc1ccc(C[C@H](NC(=O)[C@H](C)NC(=O)CN2CCOCC2)C(=O)N[C@@H](Cc2ccccc2)C(=O)[C@@]2(C)CO2)cc1 [PR-957, reference compound], the kinact/KI (Mtb proteasome [1]) was 96 M⁻¹ s⁻¹, the “Type of Inhibition” value (Mtb proteasome [2]; best ranking model (mixed, competitive, noncompetitive, uncompetitive)) was “Noncompetitive inhibition” and the Ki (Mtb proteasome [2]; best scoring inhibition model, read-out: Ki) was 5200 nM. The IC50 (Mtb proteasome [3]; 50 µM Suc-LLVY-AMC, 30 min preincubation, 37 °C, triplicate, read-out: IC50 against the Mtb proteasome) was 2200 ± 1000 nM, the “Hill Coefficient” value (Mtb proteasome [3]; from IC50 curve, Mtb proteasome) was 0.91 and the IC50 (ß5i of IP) was 15 nM. The Reversibility of inhibition (Mtb proteasome [4]; Mtb proteasome, 100-fold dilution after preincubation) was “irreversibly inhibited; also recorded: Irreversible inhibition” and the “recovery of proteasome activity” value (Mtb proteasome [4]; concentration equal or higher than IC50) was “no significant recovery of proteasome activity; also recorded: completely inhibited the enzyme”.
